{"source": "patent US8962830B2", "about": "“Protein kinase inhibitors and methods of treatment” (The Walter and Eliza Hall Institute of Medical Research, priority 2010, dated 2015)", "note": "pIC50: −log10 of the molar value."}
{"biological_target": "T1, Src recombinant enzyme, N-terminally His6 tagged full-length human protein (Homo sapiens, UniProt P12931)", "T1 construct": "Src recombinant enzyme was purchased as N-terminally His6 tagged full-length human protein; His6 (N); purchased", "T1 sequence (P12931 whole entry)": "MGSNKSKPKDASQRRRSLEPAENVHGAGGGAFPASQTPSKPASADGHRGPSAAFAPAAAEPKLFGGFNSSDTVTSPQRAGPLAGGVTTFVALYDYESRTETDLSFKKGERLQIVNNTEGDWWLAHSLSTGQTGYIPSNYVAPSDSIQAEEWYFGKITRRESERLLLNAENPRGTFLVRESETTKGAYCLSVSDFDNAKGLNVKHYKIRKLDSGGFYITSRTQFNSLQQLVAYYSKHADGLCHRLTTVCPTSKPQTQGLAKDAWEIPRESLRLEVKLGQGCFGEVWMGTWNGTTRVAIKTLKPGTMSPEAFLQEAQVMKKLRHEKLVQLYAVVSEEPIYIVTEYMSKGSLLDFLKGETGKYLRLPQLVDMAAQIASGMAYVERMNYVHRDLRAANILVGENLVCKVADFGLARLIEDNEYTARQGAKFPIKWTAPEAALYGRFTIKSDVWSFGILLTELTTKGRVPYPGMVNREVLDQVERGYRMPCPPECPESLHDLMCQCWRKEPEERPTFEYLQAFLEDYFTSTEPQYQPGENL", "experiment": "SRC kinase inhibition assay (AlphaScreen)", "type": "biochemical", "details": "80 μM ATP, 90 minutes at 30 degree Celsius", "experimental": "Protocol for SRC Kinase Inhibition Assay. Compounds of the invention were tested for in vitro activity in the following assay: A biotin labeled peptide was used as substrate (amino acid sequence: Biotin-[…]). Src recombinant enzyme was purchased as N-terminally His6 tagged full-length human protein. The 15 μL assay reactions were run in Greiner brand white 384-well low volume plates. […] Compounds were added in a volume of 100 nL from dilution series made up in DMSO, positive and negative control reactions receiving the same volume DMSO without compounds. The plates were sealed with adhesive seals and incubated for 90 minutes at 30 degree Celsius. The reactions were stopped with the detection reagents added at the same time. Product formation was quantified as photochemiluminescence between PerkinElmer AlphaScreenTM beads, using Streptavidin-coated donor and anti-phosphotyrosine (P-[…]) acceptor beads. […] Plates were incubated for 5 hours before being read on a PerkinElmer EnVisionTM plate reader in HTS AlphascreenTM mode. IC50 values were obtained by calculating percent inhibition (% I) for each reaction relative to controls on the same plate (% [SMILES] where CN/CP are the averages of the negative/positive reactions, respectively), then fitting the % I data vs. compound concentration [I] to % I=([…])))) where A is the lower asymptote, B is the upper asymptote, C is the IC50 value, and D is the slope factor."}
{"smiles": "Cc1ccc(-c2nn(C(C)(C)CNc3ncccn3)c3ncnc(N)c23)cc1", "note": "[Example 88]", "pIC50": "6.00 to 7.00"}
{"smiles": "Cc1ccc(-c2nn(C(C)(C)CNC(=O)Cc3ccccc3)c3ncnc(N)c23)cc1", "note": "[Example 9]", "pIC50": "5.00 to 6.00"}
{"smiles": "Cc1ccc(-c2nn(C(C)(C)CNC(=O)CCCc3ccc4c(c3)OCCO4)c3ncnc(N)c23)cc1", "note": "[Example 36]", "pIC50": "6.00 to 7.00"}
{"smiles": "CCNC(=O)NCC(C)(C)n1nc(-c2ccc(C)cc2)c2c(N)ncnc21", "note": "[Example 7]", "pIC50": "7.00 to 9.00"}
{"smiles": "Cc1ccc(-c2nn(C(C)(C)CNC(=O)c3cccc(Br)n3)c3ncnc(N)c23)cc1", "note": "[Example 40]", "pIC50": "6.00 to 7.00"}
{"smiles": "COCCOc1ccnc(C(=O)NCC(C)(C)n2nc(-c3ccc(C)cc3)c3c(N)ncnc32)c1", "note": "[Example 89]", "pIC50": "7.00 to 9.00"}
{"smiles": "Cc1ccc(-c2nn(C(C)(C)CNC(=O)c3ccc(CN)cc3)c3ncnc(N)c23)cc1", "note": "[13 (compound 13C)]", "pIC50": "7.00 to 9.00"}
{"smiles": "CC(=N)NCC(C)(C)n1nc(-c2ccc(C)cc2)c2c(N)ncnc21", "note": "[Example 80]", "pIC50": "6.00 to 7.00"}
{"smiles": "Cc1ccc(-c2nn(C(C)(C)CNC(=O)c3cccn3C)c3ncnc(N)c23)cc1", "note": "[Example 33]", "pIC50": "6.00 to 7.00"}
{"smiles": "Cc1ccc(-c2nn(C(C)(C)CNC(=O)c3ccc(C)cn3)c3ncnc(N)c23)cc1", "note": "[Example 72]", "pIC50": "7.00 to 9.00"}
{"smiles": "Cc1ccc(-c2nn(C(C)(C)CNC(=O)c3cccc(N4CCOCC4)c3)c3ncnc(N)c23)cc1", "note": "[Example 18]", "pIC50": "6.00 to 7.00"}
{"smiles": "Cc1ccc(-c2nn(C(C)(C)CNC(=O)c3cnn(-c4ccc(Br)cc4)c3C(F)(F)F)c3ncnc(N)c23)cc1", "note": "[Example 29]", "pIC50": "6.00 to 7.00"}
{"smiles": "Cc1ccc(-c2nn(C(C)(C)CNC(=O)c3cc(CN4CCCCC4)ccn3)c3ncnc(N)c23)cc1", "note": "[Example 82]", "pIC50": "7.00 to 9.00"}
{"smiles": "Cc1ccc(-c2nn(C(C)(C)CNC(=O)c3cnc4ccccc4n3)c3ncnc(N)c23)cc1", "note": "[Example 51]", "pIC50": "6.00 to 7.00"}
{"smiles": "CC(=O)CCC(=O)NCC(C)(C)n1nc(-c2ccc(C)cc2)c2c(N)ncnc21", "note": "[Example 16]", "pIC50": "5.00 to 6.00"}
{"smiles": "Cc1ccc(-c2nn(C(C)(C)CNC(=O)c3ccc(F)cc3)c3ncnc(N)c23)cc1", "note": "[Example 53]", "pIC50": "6.00 to 7.00"}
{"smiles": "Cc1ccc(-c2nn(C(C)(C)CNC(=O)CCCc3ccccc3)c3ncnc(N)c23)cc1", "note": "[Example 20]", "pIC50": "6.00 to 7.00"}
{"smiles": "CC(=O)CCCC(=O)NCC(C)(C)n1nc(-c2ccc(C)cc2)c2c(N)ncnc21", "note": "[Example 31]", "pIC50": "6.00 to 7.00"}
{"smiles": "Cc1ccc(-c2nn(C(C)(C)CNC(=O)c3ccccc3-n3ccnc3)c3ncnc(N)c23)cc1", "note": "[Example 14]", "pIC50": "6.00 to 7.00"}
{"smiles": "Cc1ccc(-c2nn(C(C)(C)CNC(=O)CC#N)c3ncnc(N)c23)cc1", "note": "[Example 19]", "pIC50": "7.00 to 9.00"}
{"smiles": "Cc1ccc(-c2nn(C(C)(C)CNC(=O)CCCCCN)c3ncnc(N)c23)cc1", "note": "[84 (compound 84C)]", "pIC50": "6.00 to 7.00"}
{"smiles": "Cc1ccc(-c2nn(C(C)(C)CNC(=O)c3nc(Cl)ccc3Cl)c3ncnc(N)c23)cc1", "note": "[Example 48]", "pIC50": "6.00 to 7.00"}
{"smiles": "Cc1ccc(-c2nn(C(C)(C)CNC(=O)c3ccc(CCN)cc3)c3ncnc(N)c23)cc1", "note": "[10 (compound 10C)]", "pIC50": "7.00 to 9.00"}
{"smiles": "Cc1ccc(-c2nn(C(C)(C)CNC(=O)c3cc(-c4ccco4)on3)c3ncnc(N)c23)cc1", "note": "[Example 23]", "pIC50": "7.00 to 9.00"}
{"smiles": "Cc1ccc(-c2nn(C(C)(C)CNC(=O)c3cccc(F)c3)c3ncnc(N)c23)cc1", "note": "[Example 55]", "pIC50": "5.00 to 6.00"}
{"smiles": "Cc1ccc(-c2nn(C(C)(C)CNC(=O)c3ccc(Cl)nc3Cl)c3ncnc(N)c23)cc1", "note": "[Example 47]", "pIC50": "6.00 to 7.00"}
{"smiles": "Cc1ccc(-c2nn(C(C)(C)CNC(=O)c3cccc(N4CCCCC4)c3)c3ncnc(N)c23)cc1", "note": "[Example 22]", "pIC50": "6.00 to 7.00"}
{"smiles": "Cc1ccc(-c2nn(C(C)(C)CNC3=NCCN3)c3ncnc(N)c23)cc1", "note": "[Example 78]", "pIC50": "6.00 to 7.00"}
{"smiles": "CC(=O)c1ccc(OCC(=O)NCC(C)(C)n2nc(-c3ccc(C)cc3)c3c(N)ncnc32)cc1", "note": "[Example 25]", "pIC50": "5.00 to 6.00"}
{"smiles": "Cc1ccc(-c2nn(C(C)(C)CNC(=O)CCCOCc3ccccc3)c3ncnc(N)c23)cc1", "note": "[Example 35]", "pIC50": "6.00 to 7.00"}
{"smiles": "Cc1ccc(-c2nn(C(C)(C)CNC(=O)c3ccnnc3)c3ncnc(N)c23)cc1", "note": "[Example 46]", "pIC50": "6.00 to 7.00"}
{"smiles": "Cc1ccc(-c2nn(C(C)(C)CNC(=O)c3cc(-c4ccc(F)cc4)ncn3)c3ncnc(N)c23)cc1", "note": "[Example 24]", "pIC50": "5.00 to 6.00"}
{"smiles": "Cc1ccc(-c2nn(C(C)(C)CNC(=O)c3ccncc3)c3ncnc(N)c23)cc1", "note": "[Example 67]", "pIC50": "5.00 to 6.00"}
{"smiles": "Cc1ccc(-c2nn(C(C)(C)CNC(=O)c3ccnc(Cl)c3)c3ncnc(N)c23)cc1", "note": "[Example 43]", "pIC50": "6.00 to 7.00"}
{"smiles": "Cc1ccc(-c2nn(C(C)(C)CNS(=O)(=O)c3ccccn3)c3ncnc(N)c23)cc1", "note": "[68 (compound 68B)]", "pIC50": "6.00 to 7.00"}
{"smiles": "Cc1ccc(-c2nn(C(C)(C)CNC(=O)c3cc(C)nn3Cc3ccc(F)cc3)c3ncnc(N)c23)cc1", "note": "[Example 27]", "pIC50": "6.00 to 7.00"}
{"smiles": "Cc1ccc(-c2nn(C(C)(C)CNC(=O)c3cccc(F)n3)c3ncnc(N)c23)cc1", "note": "[Example 41]", "pIC50": "6.00 to 7.00"}
{"smiles": "Cc1ccc(-c2nn(C(C)(C)CNC(C)C)c3ncnc(N)c23)cc1", "note": "[Example 8]", "pIC50": "6.00 to 7.00"}
{"smiles": "CNCC(C)(C)n1nc(-c2ccc(C)cc2)c2c(N)ncnc21", "note": "[4 (compound 4C)]", "pIC50": "6.00 to 7.00"}
{"smiles": "Cc1ccc(-c2nn(C(C)(C)CNC(=O)c3ncccn3)c3ncnc(N)c23)cc1", "note": "[Example 58]", "pIC50": "7.00 to 9.00"}
{"smiles": "Cc1ccc(-c2nn(C(C)(C)CNC(=O)CCN3CCOCC3)c3ncnc(N)c23)cc1", "note": "[Example 37]", "pIC50": "6.00 to 7.00"}
{"smiles": "Cc1ccc(-c2nn(C(C)(C)CNC(=O)c3nc(Cl)ccc3Br)c3ncnc(N)c23)cc1", "note": "[Example 49]", "pIC50": "5.00 to 6.00"}
{"smiles": "Cc1ccc(-c2nn(C(C)(C)CNC(=O)CCOc3ccccc3)c3ncnc(N)c23)cc1", "note": "[Example 39]", "pIC50": "6.00 to 7.00"}
{"smiles": "Cc1ccc(-c2nn(C(C)(C)CNC(=O)c3cnn(-c4ccc(F)cc4)c3C(F)(F)F)c3ncnc(N)c23)cc1", "note": "[Example 28]", "pIC50": "7.00 to 9.00"}
{"smiles": "CCN(CC)c1ccc(C(=O)NCC(C)(C)n2nc(-c3ccc(C)cc3)c3c(N)ncnc32)cc1", "note": "[Example 38]", "pIC50": "6.00 to 7.00"}
{"smiles": "Cc1ccc(-c2nn(C(C)(C)CNC(N)=S)c3ncnc(N)c23)cc1", "note": "[6 (compound 6B)]", "pIC50": "7.00 to 9.00"}
{"smiles": "Cc1ccc(-c2nn(C(C)(C)CN(C)C)c3ncnc(N)c23)cc1", "note": "[Example 3]", "pIC50": "5.00 to 6.00"}
{"smiles": "COCCC(=O)NCC(C)(C)n1nc(-c2ccc(C)cc2)c2c(N)ncnc21", "note": "[Example 17]", "pIC50": "7.00 to 9.00"}
{"smiles": "Cc1ccc(-c2nn(C(C)(C)CNC(=O)c3ccnc(Cl)n3)c3ncnc(N)c23)cc1", "note": "[Example 44]", "pIC50": "6.00 to 7.00"}
{"smiles": "Cc1ccc(-c2nn(C(C)(C)CNC(=O)c3ccc(Br)cn3)c3ncnc(N)c23)cc1", "note": "[Example 45]", "pIC50": "5.00 to 6.00"}
{"smiles": "Cc1ccc(-c2nn(C(C)(C)CNC(=N)N)c3ncnc(N)c23)cc1", "note": "[5 (compound 5B)]", "pIC50": "7.00 to 9.00"}
{"smiles": "Cc1ccc(-c2nn(C(C)(C)CNC(=O)c3cc(N4CCOCC4)ccn3)c3ncnc(N)c23)cc1", "note": "[70 (compound 70C)]", "pIC50": "6.00 to 7.00"}
{"smiles": "CC(=O)NCC(C)(C)n1nc(-c2ccc(C)cc2)c2c(N)ncnc21", "note": "[Example 2]", "pIC50": "6.00 to 7.00"}
{"smiles": "CCOc1ccc(C(=O)NCC(C)(C)n2nc(-c3ccc(C)cc3)c3c(N)ncnc32)cc1Cl", "note": "[Example 32]", "pIC50": "6.00 to 7.00"}
{"smiles": "Cc1ccc(-c2nn(C(C)(C)CNC(=O)c3ccc(N4CCCCC4)cc3)c3ncnc(N)c23)cc1", "note": "[Example 21]", "pIC50": "6.00 to 7.00"}
{"smiles": "Cc1ccc(-c2nn(C(C)(C)CNC(=O)c3cc(N4CCCCC4)ccn3)c3ncnc(N)c23)cc1", "note": "[69 (compound 69C)]", "pIC50": "7.00 to 9.00"}
{"smiles": "Cc1ccc(-c2nn(C(C)(C)CNC(=O)CCCN)c3ncnc(N)c23)cc1", "note": "[85 (compound 85C)]", "pIC50": "6.00 to 7.00"}
{"smiles": "Cc1ccc(-c2nn(C(C)(C)CNC(=O)c3cnn(-c4cccc(Cl)c4)c3C(F)(F)F)c3ncnc(N)c23)cc1", "note": "[Example 26]", "pIC50": "7.00 to 9.00"}
{"smiles": "Cc1ccc(-c2nn(C(C)(C)CNC(=O)c3ccccc3F)c3ncnc(N)c23)cc1", "note": "[Example 54]", "pIC50": "6.00 to 7.00"}
{"smiles": "Cc1ccc(-c2nn(C(C)(C)CNC(=O)CCCCCNC(=O)OCc3ccccc3)c3ncnc(N)c23)cc1", "note": "[Example 15]", "pIC50": "6.00 to 7.00"}
{"smiles": "Cc1ccc(-c2nn(C(C)(C)CNC(=O)c3cc(CN4CCOCC4)ccn3)c3ncnc(N)c23)cc1", "note": "[Example 83]", "pIC50": "7.00 to 9.00"}
{"smiles": "Cc1ccc(-c2nn(C(C)(C)CNC(=O)c3cccc(C#N)c3)c3ncnc(N)c23)cc1", "note": "[Example 34]", "pIC50": "6.00 to 7.00"}
{"smiles": "CC(=O)CCCCC(=O)NCC(C)(C)n1nc(-c2ccc(C)cc2)c2c(N)ncnc21", "note": "[Example 30]", "pIC50": "6.00 to 7.00"}
{"smiles": "Cc1ccc(-c2nn(C(C)(C)CNC(=N)NC#N)c3ncnc(N)c23)cc1", "note": "[Example 81]", "pIC50": "7.00 to 9.00"}
